Data taken from US11458189B2, “Cytoprotective drugs” (BALMES TRANSPLANTATION, priority 2017, dated 2022).
Starred links: 1 amine or outer side, 2 acyl side, 3 side chain; linkers in the order of their positions; H or OH if unused. Positions of bridges follow the written chain, without caps; N, C: chain ends. Non-standard residues stand in square brackets, D forms with d. Residues, ends and D or L forms follow the SMILES beside them. ξ: configuration not given here. *: point of attachment. pTerphenylCO(4''-OnC5H11) = CCCCCOc1ccc(-c2ccc(-c3ccc(C(=O)*)cc3)cc2)cc1; Orn(4R-OH,5R-OH) = O=C([C@H](C[C@@H](O)[C@@H](O)N[*:3])N[*:1])[*:2]; hTyr(3S-OH,4S-OH) = N[C@H](C(=O)O)[C@H](O)[C@@H](O)c1ccc(O)cc1; Pro(3S-OH,4S-Me) = C[C@H]1CN[C@H](C(=O)O)[C@H]1O; ξPro(4R-OH) = O=C(O)C1C[C@@H](O)CN1

Tested on: Human Renal Glomerular Endothelial Cells (HRGEC)
Assay: Oxygen and glucose deprivation followed by replenishment, cell survival (calcein AM), HRGEC
Assay type: cell-based
Protocol: Anidulafungin and micafungin were tested on Human Renal Glomerular Endothelial Cells (HRGEC, Innoprot P10665), on Human Renal Proximal Tubular Epithelial Cells (HRPTEpiC, Innoprot P10662), on Human Astrocytes (HA, caltag SC-1800), on Human Cardiac Microvascular Endothelial Cells (HCMEC, Caltag SC-6000), on Human Hepatic Sinusoidal Endothelial Cells (HHSEC, Caltag SC-5000), on Rat Primary Kidney Glomerular Endothelial cells (Cellbiologics, RN-6014G) and on Bovine Brain Microvascular Endothelial Cells (BBMEC, Caltag SC-B100).
In a first phase, these isolated, purified and cryopreserved cells are thawed and multiplied according to the supplier's recommendations in T75 or T175 flasks pre-coated with 2 μg of fibronectin/[…] (CORNING) for HRGEC, HCMEC, HHSEC and BBMEC, or 2 μg poly-L-lysin/cm^2 (Caltag SC-0403) for HRPTEpiC and HA, or 15 mL/flask 175 cm^2 gelatin-based solution (Cellbiologics) in the presence of endothelial cell supplemented growth medium ECM (P60104, INNOPROT, Caltag, SC-1001) for HRGEC, HCMEC, HHSEC, RPKGEC or BBMEC, or astrocyte cell supplemented growth medium AM (Caltag SC-1801) for HA or epithelial cell supplemented growth medium EpiCM (P60106, INNOPROT) for HRPTEpiC, at 37° C. under 5% CO2 and saturated humidity until their confluency. They are then harvested by trypsinization according to the method described by the supplier for exactly 5 minutes and then reseeded in new flasks a maximum of three times.
To carry out the oxygen and glucose deprivation test followed by their replenishment, the cells will be seeded in 96-well black plates with transparent flat bottom (GREINER). Once a sufficient number of cells has been obtained to allow seeding of 2000 to 15000 cells per well of 96-well plates depending on the cell type, the cells are seeded in these 96-well plates previously coated with an extracellular matrix as listed above for the flasks. The cells are cultured for 5 to 8 days according to the cell type, in the presence of the same growth medium as in the flask as described above except for HRGEC and HRPTEpiC for which DMEM (DUTSCHER) with 1 g/L of supplemented glucose is used, at 37° C. under 5% CO2 and saturated humidity to obtain confluency.
On the first day of oxygen and glucose deprivation, (5th, 6th, 7th or 8th day of culture), the culture conditions are drastically changed. The medium of all plates is removed and replaced by DMEM (DUTSCHER) medium without glucose and supplemented only with 1% penicillin-streptomycin (DUTSCHER). Anidulafungin or micafungin dissolved in dimethyl sulfoxide (DMSO) is then added to each well at the desired concentration, resulting in a maximum of 1% DMSO, and the plates are placed under hypoxia at <1% 02 and 5% CO2 at 37° C. for 24 hours of culture. Each compound was tested in a concentration range.
After 24 hours, the growth medium is changed and replaced by a richer medium, DMEM (DUTSCHER) at 1 g/L glucose and 2% FBS (INNOPROT) and 1% penicillin-streptomycin (DUTSCHER). These media will have been pre-equilibrated at 37° C. in advance. The cells are then returned to culture at 37° C. under 20% 02 and 5% CO2 for 22h.
After 22 hours of reoxygenation, the potential protective effect of anidulafungin or micafungin is measured by a cell viability test using calcein AM (CORNING), which is a dye substrate. The calcein AM can easily cross the cell membrane of the viable cells. The AM ester groups mask the part of the molecule that chelates calcium. Once inside the cells, the (non-fluorescent) calcein AM is hydrolyzed to (fluorescent) calcein by endogenous esterases. The resulting calcein molecule binds to calcium inside the cell and remains trapped inside the cell. These molecules emit strong green fluorescence when subjected to […] of a particular wavelength (495 nm). Since dead cells lack esterase activity, only living cells are labelled.
This cell viability test is performed in two steps. […]

[1] = [Anidulafungin] log μM 0.7781513
[2] = [Anidulafungin] log μM 1.079181
[3] = [Anidulafungin] log μM 1.255273

## CCCCCOc1ccc(-c2ccc(-c3ccc(C(=O)N[C@H]4C[C@@H](O)[C@@H](O)NC(=O)[C@@H]5[C@@H](O)[C@@H](C)CN5C(=O)[C@H]([C@@H](C)O)NC(=O)[C@H]([C@H](O)[C@@H](O)c5ccc(O)cc5)NC(=O)C5C[C@@H](O)CN5C(=O)[C@H]([C@@H](C)O)NC4=O)cc3)cc2)cc1 (stereo partly drawn) [Anidulafungin] ({pTerphenylCO(4''-OnC5H11)}-[Orn(4R-OH,5R-OH)]T[ξPro(4R-OH)][hTyr(3S-OH,4S-OH)]T[Pro(3S-OH,4S-Me)]; lactam 1-C)
[Anidulafungin] log μM 0
  Globalfluo assay 1: 1595273 arbitrary units
  Globalfluo assay 2: 2299957 arbitrary units
  Globalfluo assay 3: 2320330 arbitrary units
  Mean globalfluo: 2071853 arbitrary units
  Survival rate (%): −6%
[Anidulafungin] log μM 0.30103
  Globalfluo assay 1: 3108717 arbitrary units
  Globalfluo assay 2: 8079028 arbitrary units
  Globalfluo assay 3: 4587276 arbitrary units
  Mean globalfluo: 5258340 arbitrary units
  Survival rate (%): 7%
[Anidulafungin] log μM 0.60206
  Globalfluo assay 1: 6404501 arbitrary units
  Globalfluo assay 2: 5391467 arbitrary units
  Globalfluo assay 3: 4055726 arbitrary units
  Mean globalfluo: 5283898 arbitrary units
  Survival rate (%): 7%
[1]
  Globalfluo assay 1: 1844220 arbitrary units
  Globalfluo assay 2: 8446890 arbitrary units
  Globalfluo assay 3: 6499110 arbitrary units
  Mean globalfluo: 5596740 arbitrary units
  Survival rate (%): 8%
[Anidulafungin] log μM 0.90309
  Globalfluo assay 1: 7152564 arbitrary units
  Globalfluo assay 2: 8021501 arbitrary units
  Globalfluo assay 3: 6792572 arbitrary units
  Mean globalfluo: 7322212 arbitrary units
  Survival rate (%): 15%
[Anidulafungin] log μM 1
  Globalfluo assay 1: 8082278 arbitrary units
  Globalfluo assay 2: 8981812 arbitrary units
  Globalfluo assay 3: 10460790 arbitrary units
  Mean globalfluo: 9174960 arbitrary units
  Survival rate (%): 23%
[2]
  Globalfluo assay 1: 12175690 arbitrary units
  Globalfluo assay 2: 10104310 arbitrary units
  Globalfluo assay 3: 9396440 arbitrary units
  Mean globalfluo: 10558813 arbitrary units
  Survival rate (%): 28%
[Anidulafungin] log μM 1.20412
  Globalfluo assay 1: 12170420 arbitrary units
  Globalfluo assay 2: 9545764 arbitrary units
  Globalfluo assay 3: 9735499 arbitrary units
  Mean globalfluo: 10483894 arbitrary units
  Survival rate (%): 28%
[3]
  Globalfluo assay 1: 10855790 arbitrary units
  Globalfluo assay 2: 12347330 arbitrary units
  Globalfluo assay 3: 7837444 arbitrary units
  Mean globalfluo: 10346855 arbitrary units
  Survival rate (%): 27%
[Anidulafungin] log μM 1.30103
  Globalfluo assay 1: 10143140 arbitrary units
  Globalfluo assay 2: 10354290 arbitrary units
  Globalfluo assay 3: 10227990 arbitrary units
  Mean globalfluo: 10241807 arbitrary units
  Survival rate (%): 27%
